What all share (test): relative viability (nuclei count vs DMSO), 5 days (fraction); higher = more cells survive
Compound in experiment [1]: C1CNCCC1C2=CC(=NN2)C3=CC=NC=C3 + Cc1cc(Nc2cc(N3CCN(C)CC3)nc(Sc3ccc(NC(=O)C4CC4)cc3)n2)n[nH]1 [Tozasertib] (partner 0.1 µM)
The essentials: (§1)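 Dosing by pin tool came one day after lung cancer cell lines were seeded in 1536-well plates, using either one drug or a fixed anchor-drug dose plus five library-drug doses (not always all listed) in √10 steps. After 5 days, nuclei were counted on 4× images. Relative viability is treated-well nuclei count divided by vehicle-well nuclei count, and values are medians of duplicate plates.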

Compound in experiment [2]: C[C@@H](N)c1ccc(C(=O)Nc2ccnc3[nH]ccc23)cc1 + COc1cccc2cc(-c3nc([C@H]4CC[C@H](C(=O)O)CC4)n4ncnc(N)c34)[nH]c12 [OSI-027] (partner 0.5 µM)
The essentials: as §1

Compound in the experiment “Tanzisertib + Vorinostat”: O[C@H]1CC[C@H](Nc2ncc3nc(Nc4c(F)cc(F)cc4F)n([C@H]4CCOC4)c3n2)CC1 [Tanzisertib] + O=C(CCCCCCC(=O)Nc1ccccc1)NO [Vorinostat] (partner 1 µM)
An outline of the steps:
as §1

Compound in the experiment “Tanzisertib + Pictilisib”: O[C@H]1CC[C@H](Nc2ncc3nc(Nc4c(F)cc(F)cc4F)n([C@H]4CCOC4)c3n2)CC1 [Tanzisertib] + CS(=O)(=O)N1CCN(Cc2cc3nc(-c4cccc5[nH]ncc45)nc(N4CCOCC4)c3s2)CC1 [Pictilisib] (partner 1 µM)
An outline of the steps: as §1

Data on 5 cell lines can be found in the supplement of paper PMC10307832.

On to PC-14, for which the relative viability in experiment [1] (first compound 0.08 µM) was found to be 0.648; in experiment [1] (first compound 0.8 µM), 0.589; in experiment [1] (first compound 2.53 µM), 0.661; in experiment [1] (first compound 8 µM) it was 0.542; in experiment [2] (first compound 0.04 µM), 0.846; in experiment [2] (first compound 0.1265 µM), 0.968. Further, the relative viability is 0.904 in experiment [2] (first compound 0.4 µM); 0.712 in experiment [2] (first compound 1.265 µM); 0.625 in experiment [2] (first compound 4 µM); 0.75 with Tanzisertib + Vorinostat (first compound 0.08 µM); 0.735 with Tanzisertib + Vorinostat (first compound 0.253 µM); 0.701 with Tanzisertib + Vorinostat (first compound 0.8 µM). Also, the relative viability with Tanzisertib + Vorinostat (first compound 2.53 µM) was found to be 0.627; with Tanzisertib + Vorinostat (first compound 8 µM), 0.357; with Tanzisertib + Pictilisib (first compound 0.08 µM), 0.778; in the experiment with Tanzisertib + Pictilisib (first compound 0.253 µM) it was 0.594; with Tanzisertib + Pictilisib (first compound 0.8 µM) it was 0.799; with Tanzisertib + Pictilisib (first compound 2.53 µM), 0.693. Besides, the relative viability in the experiment with Tanzisertib + Pictilisib (first compound 8 µM) stood at 0.203.
On to RERF-LC-KJ, for which the relative viability came to 0.525 in experiment [1] (first compound 0.08 µM); 0.51 in experiment [1] (first compound 0.8 µM); 0.591 in experiment [1] (first compound 2.53 µM); 0.426 in experiment [1] (first compound 8 µM); 0.555 in experiment [2] (first compound 0.04 µM); 0.628 in experiment [2] (first compound 0.1265 µM). Moreover, the relative viability was 0.591 in experiment [2] (first compound 0.4 µM); 0.672 in experiment [2] (first compound 1.265 µM); 0.6 in experiment [2] (first compound 4 µM); 0.779 with Tanzisertib + Vorinostat (first compound 0.08 µM); 0.712 in the experiment with Tanzisertib + Vorinostat (first compound 0.253 µM); 0.743 in the experiment with Tanzisertib + Vorinostat (first compound 0.8 µM). The relative viability with Tanzisertib + Vorinostat (first compound 2.53 µM) came out at 0.573; in the experiment with Tanzisertib + Vorinostat (first compound 8 µM), 0.56; with Tanzisertib + Pictilisib (first compound 0.08 µM), 0.634; with Tanzisertib + Pictilisib (first compound 0.253 µM), 0.606; with Tanzisertib + Pictilisib (first compound 0.8 µM), 0.571; in the experiment with Tanzisertib + Pictilisib (first compound 2.53 µM), 0.511. Besides, in the experiment with Tanzisertib + Pictilisib (first compound 8 µM), the relative viability turned out to be 0.458.
As for SK-LU-1, the relative viability was determined as 0.321 in experiment [1] (first compound 0.08 µM); 0.367 in experiment [1] (first compound 0.8 µM); 0.391 in experiment [1] (first compound 2.53 µM); 0.334 in experiment [1] (first compound 8 µM); 0.37 in experiment [2] (first compound 0.04 µM); 0.356 in experiment [2] (first compound 0.1265 µM). Moreover, the relative viability in experiment [2] (first compound 0.4 µM) was 0.365; in experiment [2] (first compound 1.265 µM) it was 0.385; in experiment [2] (first compound 4 µM), 0.359; with Tanzisertib + Vorinostat (first compound 0.08 µM), 0.848; in the experiment with Tanzisertib + Vorinostat (first compound 0.253 µM), 0.824; with Tanzisertib + Vorinostat (first compound 0.8 µM), 0.734. For the same cell line, the relative viability turned out to be 0.9 with Tanzisertib + Vorinostat (first compound 2.53 µM); 0.828 with Tanzisertib + Vorinostat (first compound 8 µM); 0.58 with Tanzisertib + Pictilisib (first compound 0.08 µM); 0.539 in the experiment with Tanzisertib + Pictilisib (first compound 0.253 µM); 0.565 with Tanzisertib + Pictilisib (first compound 0.8 µM); 0.633 with Tanzisertib + Pictilisib (first compound 2.53 µM). In addition, the relative viability in the experiment with Tanzisertib + Pictilisib (first compound 8 µM) is 0.527.
SK-MES-1: the relative viability in experiment [1] (first compound 0.08 µM) worked out at 0.783; in experiment [1] (first compound 0.8 µM), 1; in experiment [1] (first compound 2.53 µM) it was 0.981; in experiment [1] (first compound 8 µM), 0.834; in experiment [2] (first compound 0.04 µM) it was 0.61; in experiment [2] (first compound 0.1265 µM) it was 0.574. Also, the relative viability was determined as 0.573 in experiment [2] (first compound 0.4 µM); 0.673 in experiment [2] (first compound 1.265 µM); 0.602 in experiment [2] (first compound 4 µM); 1.27 with Tanzisertib + Vorinostat (first compound 0.08 µM); 1.1 with Tanzisertib + Vorinostat (first compound 0.253 µM); 1.04 with Tanzisertib + Vorinostat (first compound 0.8 µM). For the same cell line, the relative viability with Tanzisertib + Vorinostat (first compound 2.53 µM) was 1.07; with Tanzisertib + Vorinostat (first compound 8 µM), 0.78; with Tanzisertib + Pictilisib (first compound 0.08 µM), 0.378; in the experiment with Tanzisertib + Pictilisib (first compound 0.253 µM) it was 0.338; in the experiment with Tanzisertib + Pictilisib (first compound 0.8 µM), 0.366; with Tanzisertib + Pictilisib (first compound 2.53 µM), 0.34. Moreover, the relative viability in the experiment with Tanzisertib + Pictilisib (first compound 8 µM) was 0.245.
On to SW 1573, for which the relative viability worked out at 0.202 in experiment [1] (first compound 0.8 µM); 0.174 in experiment [1] (first compound 2.53 µM); 0.148 in experiment [1] (first compound 8 µM); 0.694 in experiment [2] (first compound 0.04 µM); 0.604 in experiment [2] (first compound 0.1265 µM); 0.69 in experiment [2] (first compound 0.4 µM). The relative viability in experiment [2] (first compound 1.265 µM) turned out to be 0.485; in experiment [2] (first compound 4 µM), 0.485; with Tanzisertib + Vorinostat (first compound 0.08 µM) it was 1.21; in the experiment with Tanzisertib + Vorinostat (first compound 0.253 µM), 0.666; with Tanzisertib + Vorinostat (first compound 0.8 µM), 0.72; with Tanzisertib + Vorinostat (first compound 2.53 µM), 1.04. Moreover, the relative viability was 0.566 in the experiment with Tanzisertib + Vorinostat (first compound 8 µM); 0.63 in the experiment with Tanzisertib + Pictilisib (first compound 0.08 µM); 0.373 with Tanzisertib + Pictilisib (first compound 0.253 µM); 0.481 with Tanzisertib + Pictilisib (first compound 0.8 µM); 0.584 with Tanzisertib + Pictilisib (first compound 2.53 µM); 0.505 in the experiment with Tanzisertib + Pictilisib (first compound 8 µM).
